The structures appear in SMILES notation.

Assay [1] addresses Human plasma kallikrein (Homo sapiens (Human), UniProt P03952). Briefly: Plasma Kallikrein Assay. The assay is classed as biochemical. Particulars: purified Human plasma kallikrein 0.5 nM, substrate Acetyl-K-P-R-AFC, pH 7.4; read-out: PKal IC50. The procedure: (§1) The effectiveness of a compound of the present invention as an inhibitor of plasma kallikrein can be determined using a relevant purified serine protease, and an appropriate synthetic substrate. The rate of hydrolysis of the chromogenic or fluorogenic substrate by the relevant serine protease was measured both in the absence and presence of compounds of the present invention. Assays were conducted at rt or at 37° C. […] A decrease in the rate of fluorescence change in the presence of inhibitor is indicative of enzyme inhibition. Such methods are known to one skilled in the art. The results of this assay are expressed as the half-maximal inhibitory concentrations (IC50), or the inhibitory constant, Ki.
Plasma kallikrein determinations were made in 50 mM HEPES buffer at pH 7.4 containing 150 mM NaCl, 5 mM CaCl2, and 0.1% PEG 8000 (polyethylene glycol; Fisher Scientific). Determinations were made using purified Human plasma kallikrein at a final concentration of 0.5 nM (Enzyme Research Laboratories) and the synthetic substrate, Acetyl-K-P-R-AFC (Sigma #C6608) at a concentration of […].
Activity assays were performed by diluting a stock solution of substrate at least tenfold to a final concentration ≤0.2 Km into a solution containing enzyme or enzyme equilibrated with inhibitor. Times required to achieve equilibration between enzyme and inhibitor were determined in control experiments. The reactions were performed under linear progress curve conditions and fluorescence increase measured at 405 Ex/510 Em nm. Values were converted to percent inhibition of the control reaction (after subtracting 100% Inhibition value). IC50 was determined by inflection point from a four parameter logistic curve fit. Ki was calculated using the Cheng Prusoff equation, Ki=IC50/(1+[S]/Km)).

Assay [2] addresses Coagulation factor XIa (Homo sapiens (Human), UniProt P03951). The experiment in a line: Factor XIa Assay. The assay is classed as biochemical. Particulars: human factor XIa 0.04 nM, substrate GPR-AFC, 30 min pre-incubation at 25° C., pH 7.4; read-out: FXIa IC50. On the procedure: as §1, with “Coagulation factor XIa” for “plasma kallikrein”
Compounds were pre-incubated for 30 min at 25° C. with human (0.04 nM) factor XIa in 50 mM HEPES buffer with 150 mM sodium chloride, 5 mM calcium chloride, 0.1% PEG 8000, pH 7.4. factor XIa enzymatic activity was determined by addition of the substrate glycine-proline-arginine-7-amido-4-trifluoromethylcoumarin (GPR-AFC) and measurement of the fluorescence at 400/505 nm after a 60 min incubation at 25° C. The % inhibition for each data point was calculated from the data and analyzed using the log (inhibitor) vs. response four parameters equation to determine the half-maximal inhibitory concentrations (IC50). The IC50 were converted to equilibrium inhibitory constants (Ki) using the Cheng-Prusoff equation.

Chain of Human plasma kallikrein (P03952 391-638 limits assumed): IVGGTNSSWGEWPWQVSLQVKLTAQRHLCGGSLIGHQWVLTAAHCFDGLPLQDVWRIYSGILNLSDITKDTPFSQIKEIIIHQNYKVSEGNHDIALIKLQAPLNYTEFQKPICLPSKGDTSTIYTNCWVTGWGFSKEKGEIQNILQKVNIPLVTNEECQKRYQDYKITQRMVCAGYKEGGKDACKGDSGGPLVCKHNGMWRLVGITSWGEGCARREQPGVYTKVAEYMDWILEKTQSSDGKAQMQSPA
Chain of Human plasma kallikrein (P03952 20-390 partner limits assumed): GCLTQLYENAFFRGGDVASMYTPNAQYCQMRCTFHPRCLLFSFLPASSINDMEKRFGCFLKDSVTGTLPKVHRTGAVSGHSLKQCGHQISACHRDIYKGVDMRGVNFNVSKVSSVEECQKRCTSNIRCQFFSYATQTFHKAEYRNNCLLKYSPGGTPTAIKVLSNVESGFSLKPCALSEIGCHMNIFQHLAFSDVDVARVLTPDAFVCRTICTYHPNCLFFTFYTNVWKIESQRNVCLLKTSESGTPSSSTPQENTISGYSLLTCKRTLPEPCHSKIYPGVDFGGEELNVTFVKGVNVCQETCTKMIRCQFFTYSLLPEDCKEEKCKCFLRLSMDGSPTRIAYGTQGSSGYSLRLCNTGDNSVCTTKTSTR
Chain of Coagulation factor XIa (P03951 388-625 limits assumed): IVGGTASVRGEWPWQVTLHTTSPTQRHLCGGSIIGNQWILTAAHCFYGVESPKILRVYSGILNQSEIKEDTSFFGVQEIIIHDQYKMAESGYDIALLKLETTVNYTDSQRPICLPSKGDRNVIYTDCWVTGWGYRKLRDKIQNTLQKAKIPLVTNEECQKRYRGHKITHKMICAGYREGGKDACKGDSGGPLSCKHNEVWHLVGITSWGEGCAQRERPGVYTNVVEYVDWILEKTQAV
Chain of Coagulation factor XIa (P03951 19-387 partner limits assumed): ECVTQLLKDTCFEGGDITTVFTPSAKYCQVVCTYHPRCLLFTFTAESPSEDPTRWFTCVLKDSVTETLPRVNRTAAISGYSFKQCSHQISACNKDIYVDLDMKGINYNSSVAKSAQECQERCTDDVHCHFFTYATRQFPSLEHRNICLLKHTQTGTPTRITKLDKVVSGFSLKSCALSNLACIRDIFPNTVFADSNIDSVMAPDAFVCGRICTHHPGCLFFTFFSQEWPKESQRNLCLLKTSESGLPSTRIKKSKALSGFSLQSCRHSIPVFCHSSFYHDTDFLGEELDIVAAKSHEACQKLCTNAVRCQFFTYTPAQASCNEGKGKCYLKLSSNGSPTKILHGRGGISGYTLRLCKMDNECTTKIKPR

As for `O=C1Nc2ccc(Cl)c(F)c2[C@]2(CCN(c3cc(C(=O)NCc4ccc(N5CC[C@H](F)C5)nc4)cnn3)C2)O1` [Example 5, (S)-6-(6-Chloro-5-fluoro-2-oxo-1,2-dihydrospiro[benzo[d][1,3]oxazine-4,3′-pyrrolidin]-1′-yl)-N-((6-((S)-3-fluoropyrrolidin-1-yl)pyridin-3-yl)methyl)pyridazine-4-carboxamide], the IC50 in assay [1] was 3 nM; in assay [2], 5650 nM.
In the case of `O=C1Nc2ccc(Cl)c(F)c2[C@]2(CCN(c3cc(C(=O)NCc4ccc(N5CCC(F)(F)C5)nc4)cnn3)C2)O1` [Example 6, (S)-6-(6-Chloro-5-fluoro-2-oxo-1,2-dihydrospiro[benzo[d][1,3]oxazine-4,3′-pyrrolidin]-1′-yl)-N-((6-(3,3-difluoropyrrolidin-1-yl)pyridin-3-yl)methyl)pyridazine-4-carboxamide], the IC50 in assay [1] was found to be 4 nM; in assay [2], 10000 nM.
The like results for `O=C1Nc2ccc(Cl)c(F)c2[C@]2(CCN(c3cc(C(=O)NCc4ccc(N5CCC(F)(F)C5)c(F)c4)cnn3)C2)O1` [Example 7, (S)-6-(6-Chloro-5-fluoro-2-oxo-1,2-dihydrospiro[benzo[d][1,3]oxazine-4,3′-pyrrolidin]-1′-yl)-N-(4-(3,3-difluoropyrrolidin-1-yl)-3-fluorobenzyl)pyridazine-4-carboxamide] were, in that order, 33.5 nM and 10000 nM.
On the same counts, the results for `O=C1Nc2ccc(Cl)c(F)c2[C@]2(CCN(c3cc(C(=O)NCc4ccc(N5CCC(F)(F)C5)cc4F)cnn3)C2)O1` [Example 8, (S)-6-(6-Chloro-5-fluoro-2-oxo-1,2-dihydrospiro[benzo[d][1,3]oxazine-4,3′-pyrrolidin]-1′-yl)-N-(4-(3,3-difluoropyrrolidin-1-yl)-2-fluorobenzyl)pyridazine-4-carboxamide] are 30.4 nM and 10000 nM.
The like results for `CN1CC(F)(F)C[C@H]1c1ccc(CNC(=O)c2cnnc(N3CCC4(C3)OC(=O)Nc3ccc(Cl)c(F)c34)c2)cc1` (stereo partly drawn) [Example 12, (S)-6-(6-Chloro-5-fluoro-2-oxo-1,2-dihydrospiro[benzo[d][1,3]oxazine-4,3′-pyrrolidin]-1′-yl)-N-(4-(4,4-difluoro-1-methylpyrrolidin-2-yl)benzyl)pyridazine-4-carboxamide] were, in that order, 39.6 nM and 10000 nM.
`O=C1Nc2ccc(Cl)c(F)c2[C@]2(CCN(c3cncc(C(=O)NCc4ccc(Cn5ccccc5=O)nc4)n3)C2)O1` [Example 14, (S)-6-(6-Chloro-5-fluoro-2-oxo-1,2-dihydrospiro[benzo[d][1,3]oxazine-4,3′-pyrrolidin]-1′-yl)-N-((6-((2-oxopyridin-1(2H)-yl)methyl)pyridin-3-yl)methyl)pyrazine-2-carboxamide]: the half-maximal inhibitory concentration (IC50) worked out at 1.6 nM in assay [1] and 10000 nM in assay [2].
For the compound `O=C1Nc2ccc(Cl)c(F)c2[C@]2(CCN(c3cncc(C(=O)NCc4ccc(Cn5ccccc5=O)nc4)c3)C2)O1` [Example 15, (S)-5-(6-Chloro-5-fluoro-2-oxo-1,2-dihydrospiro[benzo[d][1,3]oxazine-4,3′-pyrrolidin]-1′-yl)-N-((6-((2-oxopyridin-1(2H)-yl)methyl)pyridin-3-yl)methyl)nicotinamide], the IC50 in assay [1] amounted to 0.6 nM; in assay [2], 10000 nM.
The like results for `O=C1Nc2ccc(Cl)c(F)c2[C@]2(CCN(c3cc(C(=O)NCc4ccc(Cn5ccccc5=O)cc4)ccn3)C2)O1` [Example 16, (S)-2-(6-Chloro-5-fluoro-2-oxo-1,2-dihydrospiro[benzo[d][1,3]oxazine-4,3′-pyrrolidin]-1′-yl)-N-(4-((2-oxopyridin-1(2H)-yl)methyl)benzyl)isonicotinamide] were, in that order, 50 nM and 10000 nM.

A word on the IC50: it is the concentration at which inhibition is half-maximal.

These data come from patent US20240190892A1, “PLASMA KALLIKREIN INHIBITORS” (Merck Sharp & Dohme LLC, priority 2021, published 2024).
